From patent publication US20200140489A1 (priority 2013, published 2020)
Read-outs that look alike come from different tables or passages of the source. Positions of bridges follow the written chain, without caps; N, C: chain ends. Non-standard residues stand in square brackets, D forms with d. Residues, ends and D or L forms follow the SMILES beside them. *: point of attachment. X1 = CC[C@@H](C)C1NC(=O)CN(CC(=O)*)C1=O; NMeI = CC[C@H](C)[C@H](NC)C(=O)O; NMeD = CN[C@@H](CC(=O)O)C(=O)O; NMeL = CN[C@@H](CC(C)C)C(=O)O; Nleu = CC(C)CNCC(=O)O; Aoc = NCCCCCCCC(=O)O; GABA = NCCCC(=O)O

Assays:
AgrC-IV = AgrC-IV (Staphylococcus aureus, UniProt Q309Z2); format: cell-based, S. aureus; settings: for AgrC-IV % Activation: fluorescence of treated vs non-treated wild-type bacteria, lower % activation = more potent inhibition; for AgrC-IV activity: gfp/fluorescence assay; for IC50: read-out: AgrC-IV IC50
AgrC-I = AgrC-I (Staphylococcus aureus, UniProt O07911); format: cell-based, S. aureus; settings: for AgrC-I % Activation: fluorescence of treated vs non-treated wild-type bacteria, lower % activation = more potent inhibition; for IC50: read-out: AgrC-I IC50, fluorescence reporter strain
AgrC-III = AgrC-III (Staphylococcus aureus, UniProt O33590); format: cell-based, S. aureus; settings: for AgrC-III % Activation: fluorescence of treated vs non-treated wild-type bacteria, lower % activation = more potent inhibition; for AgrC-III activity: gfp/fluorescence assay; for IC50: read-out: AgrC-III IC50, fluorescence reporter strain
AgrC-II [1] = biological target: T1, AgrC-II (Staphylococcus aureus, UniProt O33587); format: cell-based, S. aureus; settings: for AgrC-II % Activation: fluorescence of treated vs non-treated wild-type bacteria, lower % activation = more potent inhibition; for IC50: read-out: AgrC-II IC50, fluorescence reporter strain
AgrC-II [2] = biological target: T1, AgrC-II; experiment: Hemolysis assay, wild-type group-II strain RN6923, rabbit red blood cells; settings: read-out: AgrC-II IC50; hemolysis assay; 200 fM − 10 μM
[3] = second-generation analogues, fluorescence reporter strain, 200 fM − 10 μM
[4] = second-generation analogues, 200 fM − 10 μM
[5] = fluorescence reporter strain, AIPs tested over 200 fM − 10 μM or (b1) 2.5 pM − 10 μM, triplicate
[6] = AIPs tested over 200 fM − 10 μM or (b1) 2.5 pM − 10 μM, triplicate

Sequence of AgrC-I (O07911 1-430): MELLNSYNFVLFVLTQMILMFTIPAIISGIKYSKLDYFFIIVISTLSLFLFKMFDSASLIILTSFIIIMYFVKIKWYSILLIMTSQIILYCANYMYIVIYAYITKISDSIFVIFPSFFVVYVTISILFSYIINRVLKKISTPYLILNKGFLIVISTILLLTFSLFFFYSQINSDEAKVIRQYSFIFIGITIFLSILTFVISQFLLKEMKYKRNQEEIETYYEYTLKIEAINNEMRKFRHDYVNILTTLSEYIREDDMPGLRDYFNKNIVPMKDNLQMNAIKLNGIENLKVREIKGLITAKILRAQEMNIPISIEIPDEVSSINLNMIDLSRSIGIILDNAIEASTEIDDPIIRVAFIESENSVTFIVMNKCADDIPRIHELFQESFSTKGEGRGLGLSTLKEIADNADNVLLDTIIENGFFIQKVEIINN
Sequence of AgrC-IV (Q309Z2 1-430): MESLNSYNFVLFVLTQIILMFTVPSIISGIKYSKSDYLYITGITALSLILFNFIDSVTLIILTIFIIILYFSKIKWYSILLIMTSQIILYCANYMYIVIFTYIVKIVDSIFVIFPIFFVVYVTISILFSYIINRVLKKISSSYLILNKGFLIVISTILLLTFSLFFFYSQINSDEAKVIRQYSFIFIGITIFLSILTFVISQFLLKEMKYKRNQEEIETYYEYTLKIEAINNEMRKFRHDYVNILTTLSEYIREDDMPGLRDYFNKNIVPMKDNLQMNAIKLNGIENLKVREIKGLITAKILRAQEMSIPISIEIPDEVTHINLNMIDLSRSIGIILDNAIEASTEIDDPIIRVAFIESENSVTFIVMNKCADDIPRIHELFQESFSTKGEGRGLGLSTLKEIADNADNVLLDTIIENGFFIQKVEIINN
Sequence of AgrC-III (O33590 1-425): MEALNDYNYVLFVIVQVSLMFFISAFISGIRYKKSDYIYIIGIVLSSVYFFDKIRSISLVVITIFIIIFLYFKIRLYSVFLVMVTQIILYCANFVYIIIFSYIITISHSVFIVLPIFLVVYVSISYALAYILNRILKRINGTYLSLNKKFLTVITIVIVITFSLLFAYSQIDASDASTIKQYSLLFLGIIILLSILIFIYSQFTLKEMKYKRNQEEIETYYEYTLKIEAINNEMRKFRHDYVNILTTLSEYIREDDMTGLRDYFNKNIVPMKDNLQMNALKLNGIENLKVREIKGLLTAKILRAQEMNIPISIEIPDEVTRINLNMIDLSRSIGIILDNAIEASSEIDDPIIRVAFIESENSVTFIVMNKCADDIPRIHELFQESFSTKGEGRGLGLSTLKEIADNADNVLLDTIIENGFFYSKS
T1 sequence (O33587 1-437): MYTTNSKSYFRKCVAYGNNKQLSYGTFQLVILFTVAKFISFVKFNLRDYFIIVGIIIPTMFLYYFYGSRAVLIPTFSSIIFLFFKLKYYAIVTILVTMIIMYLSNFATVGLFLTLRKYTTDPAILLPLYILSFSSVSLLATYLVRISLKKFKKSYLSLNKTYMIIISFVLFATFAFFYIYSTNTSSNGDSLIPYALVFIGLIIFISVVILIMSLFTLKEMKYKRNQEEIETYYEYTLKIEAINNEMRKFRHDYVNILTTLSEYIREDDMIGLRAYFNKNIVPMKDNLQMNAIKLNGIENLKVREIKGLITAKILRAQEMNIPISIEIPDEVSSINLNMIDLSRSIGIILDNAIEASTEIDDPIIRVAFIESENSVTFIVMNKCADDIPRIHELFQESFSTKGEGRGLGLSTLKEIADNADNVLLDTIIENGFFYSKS

Structure (SMILES) | AgrC-III activity (AgrC-III) | IC50 (AgrC-IV; [3]) [nM] | IC50 (AgrC-I; [4]) [nM] | IC50 (AgrC-III; [4]) [nM] | IC50 (AgrC-II [1]; [4]) [nM] | IC50 (AgrC-IV; [5]) [nM] | IC50 (AgrC-I; [6]) [nM] | IC50 (AgrC-II [1]; [6]) [nM] | IC50 (AgrC-III; [6]) [nM] | also measured
CC(=O)N[C@H]1CSC(=O)[C@H](Cc2ccccc2)NC(=O)[C@H](CC(C)C)NC(=O)CCCCCCCNC1=O [n7LF] (Ac-C[Aoc]LF; thioester 1-C) | selective group-III inhibitors | – | – | – | – | – | – | – | – | AgrC-IV % Activation (AgrC-IV): 98 ± 14%; AgrC-I % Activation (AgrC-I): 54 ± 34%; AgrC-III % Activation (AgrC-III): 7 ± 3%; AgrC-II % Activation (AgrC-II [1]): 43 ± 25%
CC[C@H](C)[C@H](NC(=O)[C@H](C)N)C(=O)N[C@@H](CC(N)=O)C(=O)N[C@H]1CSC(=O)[C@H](CC(C)C)NC(=O)[C@H](CC(C)C)NC(=O)[C@H](Cc2ccccc2)NC(=O)[C@H](CC(=O)O)NC1=O [A-AIP-III, A-I-N-(C-D-F-L-L)] (H-AINCDFLL; thioester 4-C) | partial agonist | 28.5 | 26.1 | 27.5 | 6.4 | – | – | – | – | AgrC-IV activity (AgrC-IV): partial agonism
CC[C@H](C)[C@H](N)C(=O)N[C@@H](CC(N)=O)C(=O)N[C@H]1CSC(=O)[C@H](CC(C)C)NC(=O)[C@H](CC(C)C)NC(=O)[C@H](Cc2ccccc2)NC(=O)CN(CC(=O)O)C1=O [AIP-III nD4, I-N-(C-nD-F-L-L)] | – | – | – | – | – | 53.2 | 162 | 28.3 | – | –
CC[C@H](C)[C@H](NC(=O)CN)C(=O)N[C@@H](CC(N)=O)C(=O)N[C@H]1CSC(=O)[C@H](CC(C)C)NC(=O)[C@H](CC(C)C)NC(=O)[C@H](Cc2ccccc2)NC(=O)[C@H](CC(=O)O)NC1=O [G-AIP-III, G-I-N-(C-D-F-L-L)] (H-GINCDFLL; thioester 4-C) | largely inactive | 104 | 29.9 | > 200 | 13.7 | – | – | – | – | –
CC[C@H](C)[C@H](N)C(=O)N[C@@H](CC(N)=O)C(=O)N[C@H]1CSC(=O)[C@H](CC(C)C)NC(=O)CN(CC(C)C)C(=O)[C@H](Cc2ccccc2)NC(=O)[C@H](CC(=O)O)NC1=O [AIP-III nL6, I-N-(C-D-F-nL-L)] (H-INCDF[Nleu]L; thioester 3-C) | – | – | – | – | – | > 1000 | – | – | > 1000 | –
CC[C@H](C)[C@H](NC(=O)[C@@H](N)Cc1ccc(O)cc1)C(=O)N[C@@H](CC(N)=O)C(=O)N[C@H]1CSC(=O)[C@H](CC(C)C)NC(=O)[C@H](CC(C)C)NC(=O)[C@H](Cc2ccccc2)NC(=O)[C@H](CC(=O)O)NC1=O [Y-AIP-III, Y-I-N-(C-D-F-L-L)] (H-YINCDFLL; thioester 4-C) | moderate antagonist | 78.2 | 8.92 | 39.2 | 3.75 | – | – | – | – | –
CC[C@H](C)[C@H](N)C(=O)N[C@@H](CC(N)=O)C(=O)N[C@H]1CSC(=O)[C@H](CC(C)C)NC(=O)[C@H](CC(C)C)N(C)C(=O)[C@H](Cc2ccccc2)NC(=O)[C@H](CC(=O)O)NC1=O [AIP-III N-Me-L6, I-N-(C-D-F-NMeL-L)] (H-INCDF[NMeL]L; thioester 3-C) | – | – | – | – | – | 81.6 | > 1000 | – | 162 | AgrC-IV activity (AgrC-IV): AgrC-IV selective inhibitor
CC[C@H](C)[C@H](NC(C)=O)C(=O)N[C@@H](CC(N)=O)C(=O)N[C@H]1CSC(=O)[C@H](CC(C)C)NC(=O)[C@H](CC(C)C)NC(=O)[C@H](Cc2ccccc2)NC(=O)[C@H](CC(=O)O)NC1=O [Ac-AIP-III, Ac-I-N-(C-D-F-L-L)] (Ac-INCDFLL; thioester 3-C) | largely inactive | > 200 | > 200 | > 200 | 44.3 | – | – | – | – | –
CC[C@H](C)[C@H](NC)C(=O)N[C@@H](CC(N)=O)C(=O)N[C@H]1CSC(=O)[C@H](CC(C)C)NC(=O)[C@H](CC(C)C)NC(=O)[C@H](Cc2ccccc2)NC(=O)[C@H](CC(=O)O)NC1=O [AIP-III N-Me-I1, NMeI-N-(C-D-F-L-L)] (H-[NMeI]NCDFLL; thioester 3-C) | – | – | – | – | – | 49.2 | 60.8 | 12.8 | > 1000 | –
CC[C@@H](C)C1NC(=O)CN(CC(=O)N[C@H]2CSC(=O)[C@H](CC(C)C)NC(=O)[C@H](CC(C)C)NC(=O)[C@H](Cc3ccccc3)NC(=O)[C@H](CC(=O)O)NC2=O)C1=O (stereo partly drawn) [AIP-III nN2 DKP, (I-nN)-(C-D-F-L-L)] (X1-CDFLL; thioester 1-C) | AgrC-III inhibitor | – | – | – | – | 84.8 | 126 | 4.28 | 25.1 | –
CC[C@H](C)[C@H](N)C(=O)N[C@@H](CC(N)=O)C(=O)N[C@H]1CSC(=O)[C@H](CC(C)C)NC(=O)[C@H](CC(C)C)NC(=O)[C@H](Cc2ccccc2)NC(=O)[C@H](CC(=O)O)N(C)C1=O [AIP-III N-Me-D4, I-N-(C-NMeD-F-L-L)] (H-INC[NMeD]FLL; thioester 3-C) | – | – | – | – | – | 36.9 | 172 | 7.98 | 90.2 | –
CC[C@H](C)[C@H](N)C(=O)N[C@@H](CC(N)=O)C(=O)N[C@H]1CSC(=O)[C@H](CC(C)C)NC(=O)[C@H](C)NC(=O)[C@H](Cc2ccccc2)NC(=O)[C@H](CC(=O)O)NC1=O [AIP-III L6A, I-N-(C-D-F-A-L)] (H-INCDFAL; thioester 3-C) | – | – | – | – | – | > 200 | > 200 | > 200 | > 200 | –
CC(C)C[C@@H]1NC(=O)[C@H](Cc2ccccc2)NC(=O)[C@H](CC(=O)O)NC(=O)[C@@H](NC(=O)[C@H](C)NC(=O)[C@H](C)N)CSC(=O)[C@H](CC(C)C)NC1=O [AIP-III I1A/N2A, A-A-(C-D-F-L-L)] (H-AACDFLL; thioester 3-C) | – | 5.41 | 7.4 | 2.6 | 4.38 | – | – | – | – | –
CC(=O)N[C@H]1CSC(=O)[C@H](CC(C)C)NC(=O)[C@H](CC(C)C)NC(=O)[C@H](Cc2ccccc2)NC(=O)[C@H](CC(=O)O)NC1=O [tAIP-III, Ac-(C-D-F-L-L)] (Ac-CDFLL; thioester 1-C) | largely inactive | 25.5 | 26.7 | > 200 | 1.53 | – | – | – | – | –
CC[C@H](C)[C@H](N)C(=O)N[C@@H](CC(N)=O)C(=O)N[C@H]1CSC(=O)[C@H](CC(C)C)N(C)C(=O)[C@H](CC(C)C)NC(=O)[C@H](Cc2ccccc2)NC(=O)[C@H](CC(=O)O)NC1=O [AIP-III N-Me-L7, I-N-(C-D-F-L-NMeL)] (H-INCDFL[NMeL]; thioester 3-C) | – | – | – | – | – | – | – | – | > 1000 | AgrC-IV IC50 (AgrC-IV; [5]): _h
CC[C@H](C)[C@H](N)C(=O)N[C@@H](CC(N)=O)C(=O)N[C@H]1CSC(=O)[C@H](CC(C)C)NC(=O)[C@H](CC(C)C)NC(=O)[C@H](C)NC(=O)[C@H](CC(=O)O)NC1=O [AIP-III F5A, I-N-(C-D-A-L-L)] (H-INCDALL; thioester 3-C) | – | – | – | – | – | 118 | > 200 | > 200 | > 200 | IC50 (AgrC-II [2]): 44.7 nM
CC[C@H](C)[C@H](N)C(=O)N[C@@H](CC(N)=O)C(=O)N[C@H]1CSC(=O)[C@H](C)NC(=O)[C@H](CC(C)C)NC(=O)[C@H](Cc2ccccc2)NC(=O)[C@H](CC(=O)O)NC1=O [AIP-III L7A, I-N-(C-D-F-L-A)] (H-INCDFLA; thioester 3-C) | largely inactive | – | – | – | – | > 200 | > 200 | > 200 | > 200 | –
CC(=O)N[C@H]1CSC(=O)[C@H](Cc2ccccc2)NC(=O)[C@H](CC(C)C)NC(=O)CCCNC1=O [n3LF] (Ac-C[GABA]LF; thioester 1-C) | global inhibitor of all four AgrC receptors | – | – | – | – | – | – | – | – | AgrC-IV % Activation (AgrC-IV): 6 ± 3%; AgrC-IV activity (AgrC-IV): global inhibitor of all four AgrC receptors; AgrC-I % Activation (AgrC-I): 17 ± 7%; AgrC-I activity described in text (AgrC-I; gfp/fluorescence assay): global inhibitor of all four AgrC receptors; AgrC-III % Activation (AgrC-III): 13 ± 7%; AgrC-II % Activation (AgrC-II [1]): 28 ± 10%; AgrC-II activity described in text (AgrC-II [1]; gfp/fluorescence assay): global inhibitor of all four AgrC receptors
